Test: xn = mol fraction of the nth substance listed
Settings: isochoric method

C=C(F)C(F)(F)F [2,3,3,3-tetrafluoro-1-propene] + O=C=O
Settings	molar volume [m3/mol]
223.07 K, 420.2 kPa, Fluid (supercritical or subcritical phases), x2 = 0.662	0.001227
223.08 K, 197.6 kPa, Fluid (supercritical or subcritical phases), x2 = 0.365	0.002253
223.28 K, 95.7 kPa, Fluid (supercritical or subcritical phases), x2 = 0.16	0.002938
223.62 K, 147.7 kPa, Fluid (supercritical or subcritical phases), x2 = 0.266	0.002569
223.63 K, 312 kPa, Fluid (supercritical or subcritical phases), x2 = 0.574	0.002153
224.2 K, 460.3 kPa, Fluid (supercritical or subcritical phases), x2 = 0.754	0.001747
224.91 K, 61.7 kPa, Fluid (supercritical or subcritical phases), x2 = 0.051	0.002894
225.14 K, 271.4 kPa, Fluid (supercritical or subcritical phases), x2 = 0.48	0.002063
232.92 K, 331.8 kPa, Fluid (supercritical or subcritical phases), x2 = 0.48	0.002063
232.97 K, 252.9 kPa, Fluid (supercritical or subcritical phases), x2 = 0.365	0.002254
232.97 K, 559 kPa, Fluid (supercritical or subcritical phases), x2 = 0.662	0.001227
233 K, 129.7 kPa, Fluid (supercritical or subcritical phases), x2 = 0.16	0.002939
233.01 K, 387.5 kPa, Fluid (supercritical or subcritical phases), x2 = 0.574	0.002154
233.06 K, 576 kPa, Fluid (supercritical or subcritical phases), x2 = 0.754	0.001747
233.09 K, 190.8 kPa, Fluid (supercritical or subcritical phases), x2 = 0.266	0.00257
233.25 K, 86.7 kPa, Fluid (supercritical or subcritical phases), x2 = 0.051	0.002895
242.68 K, 174.3 kPa, Fluid (supercritical or subcritical phases), x2 = 0.16	0.00294
242.84 K, 412.5 kPa, Fluid (supercritical or subcritical phases), x2 = 0.48	0.002064
242.95 K, 711.4 kPa, Fluid (supercritical or subcritical phases), x2 = 0.662	0.001228
242.99 K, 322.1 kPa, Fluid (supercritical or subcritical phases), x2 = 0.365	0.002255
243.03 K, 246 kPa, Fluid (supercritical or subcritical phases), x2 = 0.266	0.002571
243.04 K, 710.6 kPa, Fluid (supercritical or subcritical phases), x2 = 0.754	0.001748
243.07 K, 124.7 kPa, Fluid (supercritical or subcritical phases), x2 = 0.051	0.002896
243.08 K, 479.4 kPa, Fluid (supercritical or subcritical phases), x2 = 0.574	0.002155
252.69 K, 399.3 kPa, Fluid (supercritical or subcritical phases), x2 = 0.365	0.002256
252.82 K, 234.8 kPa, Fluid (supercritical or subcritical phases), x2 = 0.16	0.002942
252.82 K, 504.1 kPa, Fluid (supercritical or subcritical phases), x2 = 0.48	0.002065
252.9 K, 876.2 kPa, Fluid (supercritical or subcritical phases), x2 = 0.662	0.001228
252.95 K, 315.1 kPa, Fluid (supercritical or subcritical phases), x2 = 0.266	0.002572
252.97 K, 179 kPa, Fluid (supercritical or subcritical phases), x2 = 0.051	0.002897
253.03 K, 574.3 kPa, Fluid (supercritical or subcritical phases), x2 = 0.574	0.002156
253.04 K, 842.3 kPa, Fluid (supercritical or subcritical phases), x2 = 0.754	0.001749
262.58 K, 492.3 kPa, Fluid (supercritical or subcritical phases), x2 = 0.365	0.002257
262.8 K, 313 kPa, Fluid (supercritical or subcritical phases), x2 = 0.16	0.002943
262.86 K, 610.6 kPa, Fluid (supercritical or subcritical phases), x2 = 0.48	0.002066
262.94 K, 1044 kPa, Fluid (supercritical or subcritical phases), x2 = 0.662	0.001229
262.95 K, 401.7 kPa, Fluid (supercritical or subcritical phases), x2 = 0.266	0.002573
262.96 K, 686 kPa, Fluid (supercritical or subcritical phases), x2 = 0.574	0.002157
263.01 K, 980.1 kPa, Fluid (supercritical or subcritical phases), x2 = 0.754	0.00175
263.06 K, 253.3 kPa, Fluid (supercritical or subcritical phases), x2 = 0.051	0.002899
272.66 K, 609 kPa, Fluid (supercritical or subcritical phases), x2 = 0.365	0.002258
272.75 K, 412.9 kPa, Fluid (supercritical or subcritical phases), x2 = 0.16	0.002944
272.82 K, 813.7 kPa, Fluid (supercritical or subcritical phases), x2 = 0.574	0.002158
272.83 K, 1223.1 kPa, Fluid (supercritical or subcritical phases), x2 = 0.662	0.001229
272.84 K, 734.4 kPa, Fluid (supercritical or subcritical phases), x2 = 0.48	0.002067
272.93 K, 348.1 kPa, Fluid (supercritical or subcritical phases), x2 = 0.051	0.0029
272.93 K, 509.9 kPa, Fluid (supercritical or subcritical phases), x2 = 0.266	0.002574
272.98 K, 1122.7 kPa, Gas, x2 = 0.754	0.00175
282.56 K, 466.4 kPa, Fluid (supercritical or subcritical phases), x2 = 0.051	0.002901
282.57 K, 537.9 kPa, Fluid (supercritical or subcritical phases), x2 = 0.16	0.002945
282.62 K, 884.2 kPa, Fluid (supercritical or subcritical phases), x2 = 0.48	0.002068
282.63 K, 1179.9 kPa, Gas, x2 = 0.754	0.001751
282.64 K, 1417.7 kPa, Fluid (supercritical or subcritical phases), x2 = 0.662	0.00123
282.69 K, 751.6 kPa, Fluid (supercritical or subcritical phases), x2 = 0.365	0.002259
282.75 K, 641.4 kPa, Fluid (supercritical or subcritical phases), x2 = 0.266	0.002575
282.88 K, 940.5 kPa, Gas, x2 = 0.574	0.002159
292.47 K, 673.8 kPa, Gas, x2 = 0.16	0.002947
292.6 K, 1003.3 kPa, Gas, x2 = 0.48	0.002069
292.67 K, 1237.7 kPa, Gas, x2 = 0.754	0.001752
292.69 K, 1614 kPa, Gas, x2 = 0.662	0.001231
292.7 K, 623 kPa, Fluid (supercritical or subcritical phases), x2 = 0.051	0.002902
292.75 K, 804.6 kPa, Fluid (supercritical or subcritical phases), x2 = 0.266	0.002577
292.85 K, 906.8 kPa, Gas, x2 = 0.365	0.00226
292.91 K, 1004.6 kPa, Gas, x2 = 0.574	0.00216
302.61 K, 742.4 kPa, Gas, x2 = 0.16	0.002948
302.61 K, 1055.6 kPa, Gas, x2 = 0.48	0.00207
302.67 K, 1296 kPa, Gas, x2 = 0.754	0.001753
302.81 K, 736.5 kPa, Gas, x2 = 0.051	0.002904
302.86 K, 1049.3 kPa, Gas, x2 = 0.574	0.002161
302.88 K, 856.1 kPa, Gas, x2 = 0.266	0.002578
302.89 K, 1732.2 kPa, Gas, x2 = 0.662	0.001231
302.96 K, 976.1 kPa, Gas, x2 = 0.365	0.002261
303.05 K, 738 kPa, Gas, x2 = 0.051	0.002904
307.54 K, 758.8 kPa, Gas, x2 = 0.16	0.002949
312.7 K, 1352.4 kPa, Gas, x2 = 0.754	0.001753
312.79 K, 1094.3 kPa, Gas, x2 = 0.574	0.002162
312.82 K, 895.4 kPa, Gas, x2 = 0.266	0.002579
312.84 K, 1814.8 kPa, Gas, x2 = 0.662	0.001232
312.92 K, 1020.4 kPa, Gas, x2 = 0.365	0.002262
312.94 K, 773.7 kPa, Gas, x2 = 0.051	0.002905
313.12 K, 778.4 kPa, Gas, x2 = 0.16	0.002949
313.12 K, 1111.4 kPa, Gas, x2 = 0.48	0.002071
322.6 K, 1062.1 kPa, Gas, x2 = 0.365	0.002263
322.75 K, 808.1 kPa, Gas, x2 = 0.051	0.002906
323.09 K, 811.8 kPa, Gas, x2 = 0.16	0.002951
323.1 K, 934.8 kPa, Gas, x2 = 0.266	0.00258
323.1 K, 1139.4 kPa, Gas, x2 = 0.574	0.002163
323.1 K, 1407.6 kPa, Gas, x2 = 0.754	0.001754
323.1 K, 1898.7 kPa, Gas, x2 = 0.662	0.001232
323.11 K, 1157.2 kPa, Gas, x2 = 0.48	0.002071
333.06 K, 1183.4 kPa, Gas, x2 = 0.574	0.002164
333.07 K, 1106.6 kPa, Gas, x2 = 0.365	0.002264
333.08 K, 844.9 kPa, Gas, x2 = 0.16	0.002952
333.08 K, 972.6 kPa, Gas, x2 = 0.266	0.002581
333.08 K, 1202.8 kPa, Gas, x2 = 0.48	0.002072
333.08 K, 1460.2 kPa, Gas, x2 = 0.754	0.001755
333.08 K, 1979.1 kPa, Gas, x2 = 0.662	0.001233
333.09 K, 843.3 kPa, Gas, x2 = 0.051	0.002907
343.03 K, 1149.4 kPa, Gas, x2 = 0.365	0.002265
343.04 K, 1010.2 kPa, Gas, x2 = 0.266	0.002582
343.04 K, 1227 kPa, Gas, x2 = 0.574	0.002165
343.05 K, 877.5 kPa, Gas, x2 = 0.16	0.002953
343.05 K, 2058.6 kPa, Gas, x2 = 0.662	0.001233
343.06 K, 877.3 kPa, Gas, x2 = 0.051	0.002909
343.07 K, 1512.6 kPa, Gas, x2 = 0.754	0.001756
343.1 K, 1248 kPa, Gas, x2 = 0.48	0.002073
352.97 K, 1292.5 kPa, Gas, x2 = 0.48	0.002074
352.99 K, 909.5 kPa, Gas, x2 = 0.16	0.002954
352.99 K, 1191.4 kPa, Gas, x2 = 0.365	0.002266
352.99 K, 1269.8 kPa, Gas, x2 = 0.574	0.002166
352.99 K, 2136.6 kPa, Gas, x2 = 0.662	0.001234
353 K, 1046.2 kPa, Gas, x2 = 0.266	0.002583
353.02 K, 910.7 kPa, Gas, x2 = 0.051	0.00291
353.02 K, 1564.1 kPa, Gas, x2 = 0.754	0.001756
362.92 K, 943.3 kPa, Gas, x2 = 0.051	0.002911
362.92 K, 1082.5 kPa, Gas, x2 = 0.266	0.002584
362.92 K, 1232.6 kPa, Gas, x2 = 0.365	0.002267
362.94 K, 1311.6 kPa, Gas, x2 = 0.574	0.002167
362.96 K, 941.6 kPa, Gas, x2 = 0.16	0.002956
362.96 K, 1337.1 kPa, Gas, x2 = 0.48	0.002075
362.96 K, 1615.2 kPa, Gas, x2 = 0.754	0.001757
362.97 K, 2214.8 kPa, Gas, x2 = 0.662	0.001234
372.89 K, 973.3 kPa, Gas, x2 = 0.16	0.002957
372.89 K, 1119 kPa, Gas, x2 = 0.266	0.002586
372.92 K, 975.7 kPa, Gas, x2 = 0.051	0.002912
372.92 K, 1354.3 kPa, Gas, x2 = 0.574	0.002167
372.92 K, 1381.3 kPa, Gas, x2 = 0.48	0.002076
372.93 K, 2291.9 kPa, Gas, x2 = 0.662	0.001235

— the NIST ThermoML archive (doi:10.1021/je201051q)
